The source of these data is patent US20240246932A1 (Merck Sharp & Dohme LLC, priority 2021, published 2024).

In the assay the target is human NaV 1.8 channels stably expressed in HEK 293 cells (Homo sapiens (Human), UniProt Q9Y5Y9). Briefly: Nav1.8 Qube automated patch-clamp assay. The class given is cell-based. Conditions: human NaV1.8 in HEK 293 cells, whole-cell voltage clamp, room temperature; read-out: IC50 values (nM) for Examples in the Nav1.8 Qube Assay. On the procedure: Compounds were tested on human NaV 1.8 and NaV1.5 channels stably expressed in human embryo kidney (HEK) 293 cells. Sodium current measurements on Qube® were conducted as follows: automated 384-well patch-clamp assays on the Qube® platform (Sophion Biosciences) were used to measure the inhibition of sodium flow through human NaV1.8 and NaV1.5 channels. Whole-cell voltage-clamp recordings were performed in QChips® (Sophion Biosciences) at room temperature. NaV1.8 current measurements on Qube® were obtained as follows: NaV1.8 currents were elicited with a 10 second 1 Hertz (Hz) pulse train from a holding potential of −90 millivolts (mV), delivered to the cells once per minute in the control condition (DMSO only) and after compound addition. The 1 hertz pulse train stimulation consisted of ten test pulses to 10 millivolt (mV) for 20 milliseconds (ms), each of which was followed by a 980 millisecond repolarization to −67 millivolts. At the end of the 10 second pulse train stimulation, a 5 second hyperpolarization step to −100 millivolt (mV) was used to recover NaV1.8 from fast inactivation. The peak currents elicited by the 1st and 10th test pulses were used to determine IC50 values for resting inhibition and inactivated state inhibition. NaV1.5 current measurements on Qube® were obtained as follows: NaV1.5 currents were elicited with a 20 second 3 Hertz pulse train in the control condition (DMSO only) and after compound addition. The pulse train consisted of sixty 20 millisecond test pulses to 0 millivolt from a holding potential of −80 millivolt (mV). The average peak currents elicited by the last 3 test pulses were used to determine IC50 values for NaV1.5 inhibition.
Sequence of human NaV 1.8 channels stably expressed in HEK 293 cells (Q9Y5Y9 whole entry): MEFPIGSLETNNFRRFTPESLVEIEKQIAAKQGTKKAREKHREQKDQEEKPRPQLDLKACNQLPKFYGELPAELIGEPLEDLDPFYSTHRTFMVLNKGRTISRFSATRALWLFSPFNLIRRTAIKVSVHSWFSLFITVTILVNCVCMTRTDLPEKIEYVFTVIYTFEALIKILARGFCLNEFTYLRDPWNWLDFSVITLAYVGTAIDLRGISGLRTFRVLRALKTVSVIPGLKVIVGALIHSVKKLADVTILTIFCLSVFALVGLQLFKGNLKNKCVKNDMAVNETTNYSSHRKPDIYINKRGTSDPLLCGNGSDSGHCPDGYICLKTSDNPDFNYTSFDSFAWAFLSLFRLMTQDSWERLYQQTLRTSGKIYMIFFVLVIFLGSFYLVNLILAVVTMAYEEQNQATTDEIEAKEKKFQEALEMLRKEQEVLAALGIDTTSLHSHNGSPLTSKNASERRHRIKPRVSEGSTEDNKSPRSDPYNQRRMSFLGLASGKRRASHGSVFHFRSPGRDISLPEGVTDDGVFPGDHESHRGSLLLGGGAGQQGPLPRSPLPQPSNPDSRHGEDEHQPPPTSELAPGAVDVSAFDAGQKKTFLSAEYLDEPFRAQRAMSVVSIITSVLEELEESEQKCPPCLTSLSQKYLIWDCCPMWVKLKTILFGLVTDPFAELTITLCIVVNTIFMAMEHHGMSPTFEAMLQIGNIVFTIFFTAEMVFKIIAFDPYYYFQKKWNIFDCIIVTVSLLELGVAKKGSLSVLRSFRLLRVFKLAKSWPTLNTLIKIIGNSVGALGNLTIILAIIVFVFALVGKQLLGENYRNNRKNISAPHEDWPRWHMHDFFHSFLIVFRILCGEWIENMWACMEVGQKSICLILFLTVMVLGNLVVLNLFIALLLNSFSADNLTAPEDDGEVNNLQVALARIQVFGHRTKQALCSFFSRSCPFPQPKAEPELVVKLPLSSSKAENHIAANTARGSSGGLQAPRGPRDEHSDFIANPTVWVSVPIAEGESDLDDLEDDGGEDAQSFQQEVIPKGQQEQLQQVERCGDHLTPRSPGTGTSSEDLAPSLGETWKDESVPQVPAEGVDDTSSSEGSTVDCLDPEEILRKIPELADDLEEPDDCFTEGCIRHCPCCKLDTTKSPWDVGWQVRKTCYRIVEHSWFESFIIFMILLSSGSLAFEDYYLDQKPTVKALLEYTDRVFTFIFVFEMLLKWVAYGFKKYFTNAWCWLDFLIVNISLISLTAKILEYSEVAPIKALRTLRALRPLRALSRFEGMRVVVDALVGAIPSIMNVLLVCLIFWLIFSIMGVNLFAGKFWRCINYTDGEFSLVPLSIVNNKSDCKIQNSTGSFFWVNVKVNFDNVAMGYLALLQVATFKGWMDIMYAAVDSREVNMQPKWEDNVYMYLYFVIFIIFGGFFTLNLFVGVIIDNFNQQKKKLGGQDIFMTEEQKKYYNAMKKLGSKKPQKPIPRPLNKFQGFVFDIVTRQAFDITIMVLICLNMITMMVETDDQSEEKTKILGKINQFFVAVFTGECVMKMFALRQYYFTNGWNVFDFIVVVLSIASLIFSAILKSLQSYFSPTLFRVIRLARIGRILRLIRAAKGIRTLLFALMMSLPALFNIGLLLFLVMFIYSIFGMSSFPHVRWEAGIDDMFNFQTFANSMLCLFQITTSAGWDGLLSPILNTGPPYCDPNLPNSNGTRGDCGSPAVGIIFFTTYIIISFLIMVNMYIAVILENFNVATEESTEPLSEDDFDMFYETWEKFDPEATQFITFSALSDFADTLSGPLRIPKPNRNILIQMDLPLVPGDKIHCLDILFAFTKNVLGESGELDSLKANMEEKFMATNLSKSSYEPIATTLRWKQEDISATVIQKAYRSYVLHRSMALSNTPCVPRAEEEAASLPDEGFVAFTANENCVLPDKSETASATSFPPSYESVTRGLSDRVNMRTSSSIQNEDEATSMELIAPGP
The following buffers were used for the Qube® recordings: External buffer for NaV1.8 Qube® recording: 150 NaCl, 2 CaCl2, 5 KCl, 1 MgCl2, 10 HEPES, 12 Dextrose; External buffer for Qube® NaV1.5 recording: 120 N-Methyl-D-Glucamine, 40 NaCl, 1 KCl, 2.7 CaCl2), 5 HEPES, 0.5 MgCl2; and Internal buffer for Qube® recording: 120 CsF, 30 CsCl, 10 EGTA, 5 HEPES, 5 NaF, 2 MgCl2.
For all Qube® experiments offline analysis was used to determine percent inhibition as a function of drug concentration. IC50 values were determined by fitting to the Hill equation.
As for `C[C@@H]1C(=O)NCCN1C(=O)NC(c1ccc(C#N)c(Cl)c1)c1cnc(C(F)(F)F)c(Cl)c1` (single isomer, unassigned) [Example 24B, (2R)-N-((S or R)-(3-chloro-4-cyano-phenyl)(5-chloro-6-(trifluoromethyl)pyridin-3-yl)methyl)-2-methyl-3-oxopiperazine-1-carboxamide], the IC50 (as a rule, the concentration that inhibits the measured activity by half) came to 2.84 nM.
The figure for `C[C@@H]1C(=O)NCCN1C(=O)NC(c1ccc(OC2CC2)c(F)c1)c1cnc(C(F)(F)F)c(Cl)c1` (single isomer, unassigned) [Example 25A, (2R)-N-((R or S)-(5-chloro-6-(trifluoro-methyl)pyridin-3-yl)(4-cyclopropoxy-3-fluorophenyl)methyl)-2-methyl-3-oxopiperazine-1-carboxamide] is 3.51 nM; for `C[C@@H]1C(=O)NCCN1C(=O)NC(c1ccc(OC2CC2)c(F)c1)c1cnc(C(F)(F)F)c(Cl)c1` (single isomer, unassigned) [Example 25B, (2R)-N-((S or R)-(5-chloro-6-(trifluoro-methyl)pyridin-3-yl)(4-cyclopropoxy-3-fluorophenyl)methyl)-2-methyl-3-oxopiperazine-1-carboxamide] it is 15.8 nM.
As for `C[C@@H]1C(=O)NCCN1C(=O)NC(c1ccc(F)c(Cl)c1)c1cnc(C(F)(F)F)c(Cl)c1` (single isomer, unassigned) [Example 26A, (2R)-N-((R or S)-(3-chloro-4-fluoro-phenyl)(5-chloro-6-(trifluoromethyl)pyridin-3-yl)methyl)-2-methyl-3-oxopiperazine-1-carboxamide], the IC50 came to 1.89 nM.
The figure for `C[C@@H]1C(=O)NCCN1C(=O)NC(c1ccc(F)c(Cl)c1)c1cnc(C(F)(F)F)c(Cl)c1` (single isomer, unassigned) [Example 26B, (2R)-N-((S or R)-(3-chloro-4-fluoro-phenyl)(5-chloro-6-(trifluoromethyl)pyridin-3-yl)methyl)-2-methyl-3-oxopiperazine-1-carboxamide] is 3.81 nM; for `C[C@@H]1C(=O)NCCN1C(=O)NC(c1cnc(C2CC2)c(Cl)c1)c1ccc(F)c(Cl)c1F` (single isomer, unassigned) [Example 27A, (2R)-N-((R or S)-(3-chloro-2,4-difluoro-phenyl)(5-chloro-6-cyclopropylpyridin-3-yl)methyl)-2-methyl-3-oxopiperazine-1-carboxamide] it is 52.6 nM.
With `C[C@@H]1C(=O)NCCN1C(=O)NC(c1cnc(C2CC2)c(Cl)c1)c1ccc(F)c(Cl)c1F` (single isomer, unassigned) [Example 27B, (2R)-N-((S or R)-(3-chloro-2,4-difluorophenyl)(5-chloro-6-cyclopropylpyridin-3-yl)methyl)-2-methyl-3-oxopiperazine-1-carboxamide], the half-inhibitory concentration (IC50) is 2.88 nM.
The figure for `C[C@@H]1C(=O)NCCN1C(=O)NC(c1cnc(C(F)(F)F)nc1)c1ccc(Cl)c(Cl)c1` (single isomer, unassigned) [Example 28A, (2R)—N—((R or S)-(3,4-dichlorophenyl)(2-(trifluoromethyl)pyrimidin-5-yl)methyl)-2-methyl-3-oxopiperazine-1-carboxamide] is 10.8 nM.
The figure for `C[C@@H]1C(=O)NCCN1C(=O)NC(c1cnc(C(F)(F)F)nc1)c1ccc(Cl)c(Cl)c1` (single isomer, unassigned) [Example 28B, (2R)-N-((S or R)-(3,4-dichlorophenyl)(2-(trifluoromethyl)pyrimidin-5-yl)methyl)-2-methyl-3-oxopiperazine-1-carboxamide] is 43.7 nM; for `C[C@@H]1C(=O)NCCN1C(=O)NC(c1ccc(C(F)(F)F)nc1)c1ccc(Cl)c(Cl)c1F` (single isomer, unassigned) [Example 29A, (2R)-N-((R or S)-(3,4-dichloro-2-fluoro-phenyl)(6-(trifluoro-methyl)pyridin-3-yl)methyl)-2-methyl-3-oxopiperazine-1-carboxamide] it is 21.4 nM.
Next, `C[C@@H]1C(=O)NCCN1C(=O)NC(c1ccc(C(F)(F)F)nc1)c1ccc(Cl)c(Cl)c1F` (single isomer, unassigned) [Example 29B]: 3.42 nM; `C[C@@H]1C(=O)NCCN1C(=O)NC(c1cnc(C(F)(F)F)nc1)c1ccc(F)c(Cl)c1F` (single isomer, unassigned) [Example 30A, (2R)-N-((R or S)-(3-chloro-2,4-difluoro-phenyl)(2-(trifluoro-methyl)pyrimidin-5-yl)methyl)-2-methyl-3-oxopiperazine-1-carboxamide]: 506 nM.
As for `C[C@@H]1C(=O)NCCN1C(=O)NC(c1cnc(C(F)(F)F)nc1)c1ccc(F)c(Cl)c1F` (single isomer, unassigned) [Example 30B, (2R)-N-((S or R)-(3-chloro-2,4-difluoro-phenyl)(2-(trifluoro-methyl)pyrimidin-5-yl)methyl)-2-methyl-3-oxopiperazine-1-carboxamide], the IC50 was 9.18 nM.
Next, `C[C@@H]1C(=O)NCCN1C(=O)NC(c1ccc(OC(F)F)nc1)c1ccc(F)c(Cl)c1F` (single isomer, unassigned) [Example 31A, (2R)-N-((R or S)-(3-chloro-2,4-difluoro-phenyl)(6-(difluoro-methoxy)pyridin-3-yl)methyl)-2-methyl-3-oxopiperazine-1-carboxamide]: 3.47 nM.
As to `C[C@@H]1C(=O)NCCN1C(=O)NC(c1ccc(OC(F)F)nc1)c1ccc(F)c(Cl)c1F` (single isomer, unassigned) [Example 31B, (2R)-N-((S or R)-(3-chloro-2,4-difluoro-phenyl)(6-(difluoro-methoxy)pyridin-3-yl)methyl)-2-methyl-3-oxopiperazine-1-carboxamide], the IC50 is 16.1 nM.
The figure for `C[C@@H]1C(=O)NCCN1C(=O)NC(c1ccc(C(F)F)nc1)c1ccc(F)c(Cl)c1F` (single isomer, unassigned) [Example 32A, (2R)-N-((R or S)-(3-chloro-2,4-difluoro-phenyl)(6-(difluoro-methyl)pyridin-3-yl)methyl)-2-methyl-3-oxopiperazine-1-carboxamide] is 96.8 nM; for `C[C@@H]1C(=O)NCCN1C(=O)NC(c1ccc(C(F)F)nc1)c1ccc(F)c(Cl)c1F` (single isomer, unassigned) [Example 32B, (2R)-N-((s or R)-(3-chloro-2,4-difluoro-phenyl)(6-(difluoro-methyl)pyridin-3-yl)methyl)-2-methyl-3-oxopiperazine-1-carboxamide] it is 13 nM.
The figure for `C[C@@H]1C(=O)NCCN1C(=O)NC(c1ccc(C2CC2)nc1)c1ccc(F)c(Cl)c1F` (single isomer, unassigned) [Example 33A, (2R)-N-((R or S)-(3-chloro-2,4-difluoro-phenyl)(6-cyclo-propylpyridin-3-yl)methyl)-2-methyl-3-oxopiperazine-1-carboxamide] is 14.4 nM; for `C[C@@H]1C(=O)NCCN1C(=O)NC(c1ccc(C2CC2)nc1)c1ccc(F)c(Cl)c1F` (single isomer, unassigned) [Example 33B, (2R)-N-((S or R)-(3-chloro-2,4-difluoro-phenyl)(6-cyclo-propylpyridin-3-yl)methyl)-2-methyl-3-oxopiperazine-1-carboxamide] it is 514 nM.
